Consider one molecule from patent publication US9737073B2, “Herbicidal weed control from combinations of fluroxypyr and ALS inhibitors” (Dow AgroSciences LLC, priority 2014, dated 2017).

What all share (assay): Postemergence herbicidal weed control, fluroxypyr-meptyl and diclosulam, greenhouse trials (Table 1)
Holding throughout (format): in vivo

Assay [1] deals with Abutilon theophrasti (velvetleaf, ABUTH). How it is done: (§1) Seeds of the desired test plant species were planted in a peat-based potting soil, Metro-Mix 360® in plastic pots with a surface area of 128 square centimeters (cm^2). Metro-Mix 360® consists of formulated Canadian sphagnum peat moss, coarse perlite, bark ash, a starter nutrient charge (with gypsum), a slow-release nitrogen and dolomitic limestone. The plants were grown for 7-19 days in a greenhouse with an approximate 14-hour (h) photoperiod which was maintained at about 29° C. during the day and 26° C. during the night. Nutrients and water were added on a regular basis and supplemental lighting was provided with overhead metal halide 1000-Watt lamps as necessary. The plants were treated with postemergence foliar applications when they reached the third to fourth true leaf stage. All treatments were applied using a randomized complete block trial design, with 4 replications per treatment.
(§2) Treatments consisted of the compounds as listed in Tables 1 to 4, each compound applied alone and in combination. Commercially formulated products of fluroxypyr-meptyl (STARANE™, 333 grams acid equivalent per liter (g ae/L) EC), diclosulam (SPIDER® 84WG), cloransulam-methyl (FIRSTRATE™ 84WG), chlorimuron-ethyl (CLASSIC® 25WG) and thifensulfuron-methyl (HARMONY® 50SG). Formulated amounts of fluroxypyr-meptyl, diclosulam, cloransulam-methyl, chlorimuron-ethyl and thifensulfuron-methyl were placed in 60 milliliter (mL) glass vials and dissolved in a volume of 30 or 60 mL of a water solution containing Agri-dex crop oil concentrate in a 1% volume per volume (v/v) ratio. Compound requirements are based upon either a 30- or a 60-mL application volume at a rate of 200 liters per hectare (L/ha). Spray solutions of the mixtures were prepared by adding the stock solutions to the appropriate amount of dilution solution to form either a 30- or a 60-mL spray solution with active ingredients in single and two-way combinations. Formulated compounds were applied to the plant material with an overhead Generation III Research Sprayer manufactured by DeVries Manufacturing in Hollandale, Minn., USA. The track sprayer was equipped with an 8003E nozzle calibrated to deliver 200 L/ha at a spray height of 18 inches (43 centimeters (cm)) above average plant canopy.
(§3) The treated plants and untreated control plants were placed in a greenhouse as described above and watered by sub-irrigation to prevent wash-off of the test compounds.
(§4) Treatments were rated at 7 to 21 days after application (DAA) as compared to the untreated control plants. Visual weed control was scored on a scale of 0 to 100 percent where 0 corresponds to no injury and 100 corresponds to complete kill.
(§5) Colby's equation was used to determine the herbicidal effects expected from the mixtures (Colby, S. R. Calculation of the synergistic and antagonistic response of herbicide combinations. Weeds 196715, 20-22). A t-test (alpha=0.05) between Colby predictions and observed combinations was used to test for significant differences indicating synergy or antagonism. The results presented in the Tables were significant according to the described criteria.
(§6) The following equation was used to calculate the expected activity of mixtures containing two active ingredients, A and B: Expected=A+B−(A×B/100) • A=observed efficacy of active ingredient A at the same concentration as used in the mixture; • B=observed efficacy of active ingredient B at the same concentration as used in the mixture.

Assay [2] deals with Chenopodium album (common lambsquarters, CHEAL). How it is done:
as §1, §2, §3, §4, §5, §6

Assay [3] concerns Amaranthus rudis Sauer (common waterhemp, AMATA). How it is done: as §1, §2, §3, §4, §5, §6

As to `CCCCCCC(C)OC(=O)COc1nc(F)c(Cl)c(N)c1Cl` (centres unmarked) [Fluroxypyr-meptyl, fluroxypyr-methylheptyl ester], the “Fluroxypyr-meptyl Mean % weed control” value in assay [1] (14DAA1, 25 g ae/ha) came to 70.0%; in assay [1] (21DAA1, 25 g ae/ha), 72.5%; in assay [2] (8DAA1, 50 g ae/ha), 43.3%; in assay [2] (14DAA1, 50 g ae/ha), 20.0%; in assay [2] (21DAA1, 50 g ae/ha), 18.3%; in assay [2] (21DAA1, 100 g ae/ha), 21.0%. The “Fluroxypyr-meptyl Mean % weed control” value in assay [3] (8DAA1, 50 g ae/ha) turned out to be 60.0%; in assay [3] (14DAA1, 50 g ae/ha), 43.8%; in assay [3] (14DAA1, 100 g ae/ha), 37.5%; in assay [3] (21DAA1, 50 g ae/ha), 37.5%; in assay [3] (21DAA1, 100 g ae/ha), 38.8%.
